Laboratory results: patent US20030152628A1, “Dual release formulation comprising levodopa ethyl ester and a decarboxylase inhibitor in an immediate-release layer with levodopa ethyl ester in a controlled release core” (priority 2001, published 2003)
In brackets after ≈: the same amount, converted by molar mass.

Columns and labels:
[1] = Solubility at ˜22-24° C. versus pH; assay type: physicochemical
From the text: However, carbidopa and LDEE, examples of two active materials in the composition of the present invention, have different chemical and physical properties and contrasting solubility characteristics especially in acid conditions, i.e., in the gastrointestinal tract (see Table 1).

[2] = Solubility and stability properties of the active materials

Structure (SMILES)	Solubility ([1]; pH 1.0) [mg/mL]	Solubility ([1]; pH 5.0) [mg/mL]	sensitivity to moisture / hydrolysis [2]	stability at room temperature ([2]; kept under refrigeration (2-8° C.))	solubility in water [2]
CCOC(=O)[C@@H](N)Cc1ccc(O)c(O)c1 [LDEE, levodopa ethyl ester]	2200 (≈ 9770 mM)	1700 (≈ 7550 mM)	highly sensitive to moisture, undergoes hydrolysis easily	not stable at room temperature	
C[C@@](Cc1ccc(O)c(O)c1)(NN)C(=O)O [Carbidopa, carbidopa, reference compound]					slightly soluble
